Assay results as given in patent US11325938B2, “CD73 inhibitors” (ORIC Pharmaceuticals, Inc., priority 2018, dated 2022).

Molecular target: CD73 (Homo sapiens (Human), UniProt P21589)
Test: Biochemical assay: inhibition of CD73 activity (AMP hydrolysis, Malachite Green readout)
Conditions: CD73 0.3208 nM, AMP 15 μM, 25 mM Tris-HCl pH 7.4, RT, absorbance 620 nm
Method: Example A1: Biochemical Assay
Assay Reaction Conditions
• Assay Volume: 70 μl • Reaction Volume: 50 μl • CD73: 0.3208 nM • AMP: 15 μM • Assay Buffer: 25 mM Tris-HCL, pH 7.4, 0.01% Brij-35, 0.01% BSA, 5 mM MgCl2 Assay Procedure:
Made dose titration of testing compounds in assay buffer, 10 points ½ log titrations in duplicates starting at 100 μM.
Added 25 μl of CD73 to each well for a final concentration of 320 pM.
Incubated at RT for 15 min.
Added 25 μl of AMP to each well for a final concentration of 15 μM.
Incubated at RT for 10 min.
Added 10 μl of Malachite Green Reagent A, incubate at RT for 10 min.
Added 10 of Malachite Green Reagent B, incubate at RT for 45 min.
Read the Absorbance on Envision plate reader using excitation filter: Cy5 […].
The ability of the compounds disclosed herein to inhibit CD73 activity was quantified and the respective IC50 values were determined. Table 2 provides the biochemical IC50 values of compounds disclosed herein.

CD73, sequence (P21589 27-574): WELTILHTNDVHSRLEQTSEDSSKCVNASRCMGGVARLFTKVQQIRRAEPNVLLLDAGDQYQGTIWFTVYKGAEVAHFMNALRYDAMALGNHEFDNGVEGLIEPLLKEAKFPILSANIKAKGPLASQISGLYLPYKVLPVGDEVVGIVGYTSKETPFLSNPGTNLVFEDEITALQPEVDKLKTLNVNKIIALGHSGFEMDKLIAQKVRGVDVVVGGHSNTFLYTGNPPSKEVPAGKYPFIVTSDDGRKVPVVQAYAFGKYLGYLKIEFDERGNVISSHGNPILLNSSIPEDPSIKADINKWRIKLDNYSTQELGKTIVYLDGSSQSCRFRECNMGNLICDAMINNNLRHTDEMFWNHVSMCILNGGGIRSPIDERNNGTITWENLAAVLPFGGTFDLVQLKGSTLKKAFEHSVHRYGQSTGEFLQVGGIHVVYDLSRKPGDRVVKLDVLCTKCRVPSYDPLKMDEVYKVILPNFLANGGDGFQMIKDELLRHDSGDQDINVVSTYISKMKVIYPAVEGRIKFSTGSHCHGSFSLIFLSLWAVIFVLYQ

SMILES | IC50 [nM]
CSCC(C)(OC[C@H]1O[C@@H](n2ncc3c(NC4CCCC4)nc(Cl)nc32)[C@H](O)[C@@H]1O)P(=O)(O)O (stereo partly drawn) [Example 55, (2-(((2R,3S,4R,5R)-5-(6-Chloro-4-(cyclopentylamino)-1H-pyrazolo[3,4-d]pyrimidin-1-yl)-3,4-dihydroxytetrahydrofuran-2-yl)methoxy)-1-(methylthio)propan-2-yl)phosphonic acid] | ≤ 100
C[C@@H](OC[C@H]1O[C@@H](n2ncc3c(NC4CCCC4)nc(Cl)nc32)[C@H](O)[C@@H]1O)P(=O)(O)O [Example 32, ((S)-1-(((2R,3S,4R,5R)-5-(6-chloro-4-(cyclopentylamino)-1H-pyrazolo[3,4-d]pyrimidin-1-yl)-3,4-dihydroxytetrahydrofuran-2-yl)methoxy)ehtyl)phosphonic acid] | ≤ 100
C[C@H](Nc1nc(Cl)nc2c1cnn2[C@@H]1O[C@H](COC(C)(CO)P(=O)(O)O)[C@@H](O)[C@H]1O)c1ccc(F)cc1 (mixture of isomers) [Example 183, rac-(2-(((2R,3S,4R,5R)-5-(6-chloro-4-(((S)-1-(4-fluorophenyl)ethyl)amino)-1H-pyrazolo[3,4-d]pyrimidin-1-yl)-3,4-dihydroxytetrahydrofuran-2-yl)methoxy)-1-hydroxypropane-2-yl)phosphonic acid] | ≤ 100
O=P(O)(O)C(OC[C@H]1O[C@@H](n2ncc3c(NC4CCCC4)nc(Cl)nc32)[C@H](O)[C@@H]1O)c1nnn[nH]1 (stereo partly drawn) [Example 35, ((((2R,3S,4R,5R)-5-(6-chloro-4-(cyclopentylamino)-1H-pyrazolo[3,4-d]pyrimidin-1-yl)-3,4-dihydroxytetrahydrofuran-2-yl)methoxy)(1H-tetrazol-5-yl)methyl)phosphonic acid] | ≤ 100
COC[C@H](OC[C@H]1O[C@@H](n2nnc3c(NC4CCCC4)cc(Cl)nc32)[C@H](O)[C@@H]1O)P(=O)(O)O [Example 157, ((R)-1-(((2R,3S,4R,5R)-5-(5-chloro-7-(cyclopentylamino)-3H-[1,2,3]triazolo[4,5-b]pyridin-3-yl)-3,4-dihydroxytetrahydrofuran-2-yl)methoxy)-2-methoxyethyl)phosphonic acid] | ≤ 100
O=c1[nH]c(CC(CO)(OC[C@H]2O[C@@H](n3ncc4c(NC5CCCC5)nc(Cl)nc43)[C@H](O)[C@@H]2O)P(=O)(O)O)no1 (mixture of isomers) [Example 206, rac-(2-(((2R,3S,4R,5R)-5-(6-chloro-4-(cyclopentylamino)-1H-pyrazolo[3,4-d]pyrimidin-1-yl)-3,4-dihydroxytetrahydrofuran-2-yl)methoxy)-1-hydroxy-3-(5-oxo-4,5-dihydro-1,2,4-oxadiazol-3-yl)propan-2-yl)phosphonic acid] | ≤ 100
C[C@](Cc1nn[nH]n1)(OC[C@H]1O[C@@H](n2ncc3c(NC4CCCC4)nc(Cl)nc32)[C@H](O)[C@@H]1O)P(=O)(O)O [Example 120, ((S)-2-(((2R,3S,4R,5R)-5-(6-chloro-4-(cyclopentylamino)-1H-pyrazolo[3,4-d]pyrimidin-1-yl)-3,4-dihydroxytetrahydrofuran-2-yl)methoxy)-1-(2H-tetrazol-5-yl)propan-2-yl)phosphonic acid] | ≤ 100
O=P(O)(O)C(CO)(CO)OC[C@H]1O[C@@H](n2ncc3c(NC4CCC45CCC5)nc(Cl)nc32)[C@H](O)[C@@H]1O (mixture of isomers) [Example 204, rac-(2-(((2R,3S,4R,5R)-5-(6-chloro-4-(spiro[3.3]heptan-1-ylamino)-1H-pyrazolo[3,4-d]pyrimidin-1-yl)-3,4-dihydroxytetrahydrofuran-2-yl)methoxy)-1,3-dihydroxypropoan-2-yl)phosphonic acid] | ≤ 100
O=C(O)COCC(CO)(OC[C@H]1O[C@@H](n2ncc3c(NC4CCCC4)nc(Cl)nc32)[C@H](O)[C@@H]1O)P(=O)(O)O (mixture of isomers) [Example 198, rac-2-(2-(((2R,3S,4R,5R)-5-(6-chloro-4-(cyclopentylamino)-1H-pyrazolo[3,4-d]pyrimidin-1-yl)-3,4-dihydroxytetrahydrofuran-2-yl)methoxy)-3-hydroxy-2-phosphonopropoxy)acetic acid] | ≤ 100
CC(CO)(OC[C@H]1O[C@@H](n2cnc3c(NC4CCCC4)nc(Cl)nc32)[C@H](O)[C@@H]1O)P(=O)(O)O (stereo partly drawn) [Example 76, (2-(((2R,3S,4R,5R)-5-(2-chloro-6-(cyclopentylamino)-9H-purin-9-yl)-3,4-dihydroxytetrahydrofuran-2-yl)methoxy)-1-hydroxypropan-2-yl)phosphonic acid] | ≤ 100
C[C@](CO)(OC[C@H]1O[C@@H](n2ncc3c(N[C@@H]4CCc5ccc(F)cc54)nc(Cl)nc32)[C@H](O)[C@@H]1O)P(=O)(O)O [Example 108, ((S)-2-(((2R,3S,4R,5R)-5-(6-chloro-4-(((R)-6-fluoro-2,3-dihydroxy-1H-inden-1-yl)amino)-1H-pyrazolo[3,4-d]pyrimidin-1-yl)-3,4-dihydroxytetrahydrofuran-2-yl)methoxy)-1-hydroxypropan-2-yl)phosphonic acid] | ≤ 100
O=P(O)(O)C(CO)(CCO)OC[C@H]1O[C@@H](n2ncc3c(NC4CCCC4)nc(Br)nc32)[C@H](O)[C@@H]1O (stereo partly drawn) [Example 37, (2-(((2R,3S,4R,5R)-5-(6-bromo-4-(cyclopentylamino)-1H-pyrazolo[3,4-d]pyrimidin-1-yl)-3,4-dihydroxytetrahydrofuran-2-yl)methoxy)-1,4-dihydrobutan-2-yl)phosphonic acid] | ≤ 100
O=P(O)(O)C(CO)(Cc1nn[nH]n1)OC[C@H]1O[C@@H](n2ncc3c(NC4CCCC4)nc(Cl)nc32)[C@H](O)[C@@H]1O (stereo partly drawn) [Example 84, (2-(((2R,3S,4R,5R)-5-(6-Chloro-4-(cyclopentylamino)-1H-pyrazolo[3,4-d]pyrimidin-1-yl)-3,4-dihydroxytetrahydrofuran-2-yl)methoxy)-1-hydroxy-3-(2H-tetrazol-5-yl)propan-2-yl)phosphonic acid] | ≤ 100
O=P(O)(O)COC[C@H]1O[C@@H](n2nnc3c(NCc4ccccc4Cl)cc(Cl)nc32)[C@H](O)[C@@H]1O [Example 26, ((((2R,3S,4R,5R)-5-(5-chloro-7-((2-chlorobenzyl)amino)-3H-[1,2,3]triazolo[4,5-b]pyridin-3-yl)-3,4-dihydroxytetrahydrofuran-2-yl)methoxy)methyl)phosphonic acid] | ≤ 100
CC(OC[C@H]1O[C@@H](n2ncc3c(NC4CCCC4)nc(Cl)nc32)[C@H](O)[C@@H]1O)P(=O)(O)O (stereo partly drawn) [Example 5, (1-(((2R,3S,4R,5R)-5-(6-Chloro-4-(cyclopentylamino)-1H-pyrazolo[3,4-d]pyrimidin-1-yl)-3,4-dihydroxytetrahydrofuran-2-yl)methoxy)ethyl)phosphonic acid] | ≤ 100
O=P(O)(O)C(CO)(COCC(F)(F)F)OC[C@H]1O[C@@H](n2ncc3c(NC4CCCC4)nc(Cl)nc32)[C@H](O)[C@@H]1O (mixture of isomers) [Example 208, rac-(2-(((2R,3S,4R,5R)-5-(6-chloro-4-(cyclopentylamino)-1H-pyrazolo[3,4-d]pyrimidin-1-yl)-3,4-dihydroxytetrahydrofuran-2-yl)methoxy)-1-hydroxy-3-(2,2,2-trifluoroethoxy)propan-2-yl)phosphonic acid] | ≤ 100
O=P(O)(O)C(CO)OC[C@H]1O[C@@H](n2nnc3c(NC4CCCC4)nc(Cl)nc32)[C@H](O)[C@@H]1O (stereo partly drawn) [Example 58, (1-(((2R,3S,4R,5R)-5-(5-Chloro-7-(cyclopentylamino)-3H-[1,2,3]triazolo[4,5-d]pyrimidin-3-yl)-3,4-dihydroxytetrahydrofuran-2-yl)methoxy)-2-hydroxyethyl)phosphonic acid] | ≤ 100
C[C@](CO)(OC[C@H]1O[C@@H](n2ncc3c(N[C@@H]4CCc5cc(F)ccc54)nc(Cl)nc32)[C@H](O)[C@@H]1O)P(=O)(O)O [Example 121, ((S)-2-(((2R,3S,4R,5R)-5-(6-chloro-4-(((R)-5-fluoro-2,3-dihydro-1H-inden-1-yl)amino)-1H-pyrazolo[3,4-d]pyrimidin-1-yl)-3,4-dihydroxytetrahydrofuran-2-yl)methoxy)-1-hydroxypropan-2-yl)phosphonic acid] | ≤ 100
COCC(C)(OC[C@H]1O[C@@H](n2ncc3c(N[C@@H]4CCc5ccccc54)nc(Cl)nc32)[C@H](O)[C@@H]1O)P(=O)(O)O (stereo partly drawn) [Example 77, (2-(((2R,3S,4R,5R)-5-(6-chloro-4-(((R)-2,3-dihydro-1H-inden-1-yl)amino)-1H-pyrazolo[3,4-d]pyrimidin-1-yl)-3,4-dihydroxytetrahydrofuran-2-yl)methoxy)-1-methoxypropan-2-yl)phosphonic acid] | ≤ 100
O=P(O)(O)[C@](CO)(COCc1ccccc1)OC[C@H]1O[C@@H](n2ncc3c(NC4CCCC4)nc(Cl)nc32)[C@H](O)[C@@H]1O (racemic) [Example 179, rac-((R)-1-(benzyloxy)-2-(((2R,3S,4R,5R)-5-(6-chloro-4-(cyclopentylamino)-1H-pyrazolo[3,4-d]pyrimidin-1-yl)-3,4-dihydroxytetrahydrofuran-2-yl)methoxy)-3-hydroxypropan-2-yl)phosphonic acid] | ≤ 100
O=P(O)(O)[C@](CO)(COCC1CC1)OC[C@H]1O[C@@H](n2ncc3c(NC4CCCC4)nc(Cl)nc32)[C@H](O)[C@@H]1O (racemic) [Example 170, rac-((R)-2-(((2R,3S,4R,5R)-5-(6-chloro-4-(cyclopentylamino)-1H-pyrazolo[3,4-d]pyrimidin-1-yl)-3,4-dihydroxytetrahydrofuran-2-yl)methoxy)-1-(cyclopropylmethoxy)-3-hydroxypropan-2-yl)phosphonic acid] | ≤ 100
